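Cells were grown in 96-well plates and exposed to each compound for 48 hours at five concentrations; endpoints were interpolated linearly between bracketing concentrations, or set to the highest concentration if not reached. At the GI50, growth is halved. TGI: concentration producing complete growth inhibition.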
Assays:
Assay in all cases: NCI anticancer screen, dose series, 48 h
786-0 renal = tested on: 786-0 renal
A498 renal = tested on: A498 renal
A549 NSCLC = tested on: A549 NSCLC
ACHN renal = tested on: ACHN renal
BT-549 breast = tested on: BT-549 breast
CAKI-1 renal = tested on: CAKI-1 renal
CCRF-CEM leukemia = tested on: CCRF-CEM leukemia
COLO 205 colon = tested on: COLO 205 colon
DU-145 prostate = tested on: DU-145 prostate
EKVX NSCLC = tested on: EKVX NSCLC
HCC-2998 colon = tested on: HCC-2998 colon
HCT-116 colon = tested on: HCT-116 colon
HCT-15 colon = tested on: HCT-15 colon
HL-60(TB) leukemia = tested on: HL-60(TB) leukemia
HOP-62 NSCLC = tested on: HOP-62 NSCLC
HOP-92 NSCLC = tested on: HOP-92 NSCLC
HS 578T breast = tested on: HS 578T breast
HT29 colon = tested on: HT29 colon
IGROV1 ovarian = tested on: IGROV1 ovarian
K-562 leukemia = tested on: K-562 leukemia
KM12 colon = tested on: KM12 colon
LOX IMVI melanoma = tested on: LOX IMVI melanoma
M14 melanoma = tested on: M14 melanoma
MALME-3M melanoma = tested on: MALME-3M melanoma
MCF7 breast = tested on: MCF7 breast
MDA-MB-231 breast = tested on: MDA-MB-231 breast
MDA-MB-435 = tested on: MDA-MB-435
MDA-MB-468 breast = tested on: MDA-MB-468 breast
MOLT-4 leukemia = tested on: MOLT-4 leukemia
NCI-H226 lung = tested on: NCI-H226 lung
NCI-H23 lung = tested on: NCI-H23 lung
NCI-H460 lung = tested on: NCI-H460 lung
NCI-H522 lung = tested on: NCI-H522 lung
NCI/ADR-RES ovarian = tested on: NCI/ADR-RES ovarian
OVCAR-3 ovarian = tested on: OVCAR-3 ovarian
OVCAR-4 ovarian = tested on: OVCAR-4 ovarian
OVCAR-5 ovarian = tested on: OVCAR-5 ovarian
OVCAR-8 ovarian = tested on: OVCAR-8 ovarian
PC-3 prostate = tested on: PC-3 prostate
RPMI-8226 leukemia = tested on: RPMI-8226 leukemia
RXF 393 renal = tested on: RXF 393 renal
SF-268 CNS = tested on: SF-268 CNS
SF-295 CNS = tested on: SF-295 CNS
SF-539 CNS = tested on: SF-539 CNS
SK-MEL-2 melanoma = tested on: SK-MEL-2 melanoma
SK-MEL-28 melanoma = tested on: SK-MEL-28 melanoma
SK-MEL-5 melanoma = tested on: SK-MEL-5 melanoma
SK-OV-3 ovarian = tested on: SK-OV-3 ovarian
SN12C renal = tested on: SN12C renal
SNB-19 CNS = tested on: SNB-19 CNS
SNB-75 CNS = tested on: SNB-75 CNS
SR leukemia = tested on: SR leukemia
SW-620 colon = tested on: SW-620 colon
T-47D breast = tested on: T-47D breast
TK-10 renal = tested on: TK-10 renal
U251 CNS = tested on: U251 CNS
UACC-257 melanoma = tested on: UACC-257 melanoma
UACC-62 melanoma = tested on: UACC-62 melanoma
UO-31 renal = tested on: UO-31 renal

SMILES: CCN1C(=O)N(CC)C2NNC(Sc3c(C(=O)O)c4ccccc4n(C4CCCC4)c3=O)=NC21 (stereo not drawn)
- GI50 (786-0 renal): 4.36 µM
- TGI (786-0 renal): 19.4 µM
- GI50 (A498 renal): 14.8 µM
- TGI (A498 renal): 42.8 µM
- GI50 (A549 NSCLC): 4.04 µM
- TGI (A549 NSCLC): 17.8 µM
- GI50 (ACHN renal): 4.36 µM
- TGI (ACHN renal): 16.3 µM
- GI50 (BT-549 breast): 9.6 µM
- TGI (BT-549 breast): 24.4 µM
- GI50 (CAKI-1 renal): 3.97 µM
- TGI (CAKI-1 renal): 16.5 µM
- GI50 (CCRF-CEM leukemia): 3.45 µM
- TGI (CCRF-CEM leukemia): 38.3 µM
- GI50 (COLO 205 colon): 2.04 µM
- TGI (COLO 205 colon): 4.16 µM
- GI50 (DU-145 prostate): 3.91 µM
- TGI (DU-145 prostate): 18.3 µM
- GI50 (EKVX NSCLC): 4.69 µM
- TGI (EKVX NSCLC): 27.4 µM
- GI50 (HCC-2998 colon): 2.84 µM
- TGI (HCC-2998 colon): 9.8 µM
- GI50 (HCT-116 colon): 3.09 µM
- TGI (HCT-116 colon): 11.2 µM
- GI50 (HCT-15 colon): 2.85 µM
- TGI (HCT-15 colon): 11.2 µM
- GI50 (HL-60(TB) leukemia): 2.35 µM
- TGI (HL-60(TB) leukemia): 6.86 µM
- GI50 (HOP-62 NSCLC): 5.75 µM
- TGI (HOP-62 NSCLC): 37.2 µM
- GI50 (HOP-92 NSCLC): 10.3 µM
- TGI (HOP-92 NSCLC): 35 µM
- GI50 (HS 578T breast): 2.21 µM
- TGI (HS 578T breast): 8.88 µM
- GI50 (HT29 colon): 3.13 µM
- TGI (HT29 colon): 10.5 µM
- GI50 (IGROV1 ovarian): 4.41 µM
- TGI (IGROV1 ovarian): 29.4 µM
- GI50 (K-562 leukemia): 3.13 µM
- TGI (K-562 leukemia): > 100 µM
- GI50 (KM12 colon): 3.3 µM
- TGI (KM12 colon): 16.9 µM
- GI50 (LOX IMVI melanoma): 3.87 µM
- TGI (LOX IMVI melanoma): 16.2 µM
- GI50 (M14 melanoma): 3.28 µM
- TGI (M14 melanoma): 13.3 µM
- GI50 (MALME-3M melanoma): 7.36 µM
- TGI (MALME-3M melanoma): 25.6 µM
- GI50 (MCF7 breast): 2.07 µM
- TGI (MCF7 breast): 13.3 µM
- GI50 (MDA-MB-231 breast): 3.03 µM
- TGI (MDA-MB-231 breast): 11.5 µM
- GI50 (MDA-MB-435): 1.47 µM
- TGI (MDA-MB-435): 3.85 µM
- GI50 (MDA-MB-468 breast): 2.02 µM
- TGI (MDA-MB-468 breast): 6.05 µM
- GI50 (MOLT-4 leukemia): 3.88 µM
- TGI (MOLT-4 leukemia): 50.3 µM
- GI50 (NCI-H226 lung): 4.34 µM
- TGI (NCI-H226 lung): 17.7 µM
- GI50 (NCI-H23 lung): 3.44 µM
- TGI (NCI-H23 lung): 15.4 µM
- GI50 (NCI-H460 lung): 2.6 µM
- TGI (NCI-H460 lung): 10.7 µM
- GI50 (NCI-H522 lung): 1.54 µM
- TGI (NCI-H522 lung): 3.74 µM
- GI50 (NCI/ADR-RES ovarian): 1.92 µM
- TGI (NCI/ADR-RES ovarian): 4.42 µM
- GI50 (OVCAR-3 ovarian): 3.21 µM
- TGI (OVCAR-3 ovarian): 12.8 µM
- GI50 (OVCAR-4 ovarian): 6.15 µM
- TGI (OVCAR-4 ovarian): 45 µM
- GI50 (OVCAR-5 ovarian): 4.09 µM
- TGI (OVCAR-5 ovarian): 22.1 µM
- GI50 (OVCAR-8 ovarian): 3.28 µM
- TGI (OVCAR-8 ovarian): 12.7 µM
- GI50 (PC-3 prostate): 4.06 µM
- TGI (PC-3 prostate): 33.6 µM
- GI50 (RPMI-8226 leukemia): 4.17 µM
- TGI (RPMI-8226 leukemia): 25.9 µM
- GI50 (RXF 393 renal): 2.85 µM
- TGI (RXF 393 renal): 11.9 µM
- GI50 (SF-268 CNS): 4.47 µM
- TGI (SF-268 CNS): 45.4 µM
- GI50 (SF-295 CNS): 2.41 µM
- TGI (SF-295 CNS): 7.88 µM
- GI50 (SF-539 CNS): 2.14 µM
- TGI (SF-539 CNS): 5.51 µM
- GI50 (SK-MEL-2 melanoma): 4.15 µM
- TGI (SK-MEL-2 melanoma): 19.4 µM
- GI50 (SK-MEL-28 melanoma): 6.95 µM
- TGI (SK-MEL-28 melanoma): 25.7 µM
- GI50 (SK-MEL-5 melanoma): 3.49 µM
- TGI (SK-MEL-5 melanoma): 13.6 µM
- GI50 (SK-OV-3 ovarian): 3.35 µM
- TGI (SK-OV-3 ovarian): 20.8 µM
- GI50 (SN12C renal): 3.41 µM
- TGI (SN12C renal): 16.1 µM
- GI50 (SNB-19 CNS): 4.59 µM
- TGI (SNB-19 CNS): 57.3 µM
- GI50 (SNB-75 CNS): 1.51 µM
- TGI (SNB-75 CNS): 11.8 µM
- GI50 (SR leukemia): 3.4 µM
- TGI (SR leukemia): 35.7 µM
- GI50 (SW-620 colon): 3.3 µM
- TGI (SW-620 colon): 17.1 µM
- GI50 (T-47D breast): 7.2 µM
- TGI (T-47D breast): 72.7 µM
- GI50 (TK-10 renal): 10.3 µM
- TGI (TK-10 renal): 31.3 µM
- GI50 (U251 CNS): 3.66 µM
- TGI (U251 CNS): 15.3 µM
- GI50 (UACC-257 melanoma): 7.65 µM
- TGI (UACC-257 melanoma): 28.2 µM
- GI50 (UACC-62 melanoma): 3.05 µM
- TGI (UACC-62 melanoma): 16.3 µM
- GI50 (UO-31 renal): 4.38 µM
- TGI (UO-31 renal): 22.9 µM

Source: PubChem BioAssay (NCI)
